Source: patent US9113629B2, “4-amino-6-(4-substituted-phenyl)-picolinates and 6-amino-2-(4-substituted-phenyl)-pyrimidine-4-carboxylates and their use as herbicides” (DOW AGROSCIENCES LLC, priority 2013, dated 2015)

What was measured:
[1] = test system: TRZSS: wheat, including spring and winter (Triticum aestivum); experiment: Post-emergent Test III, herbicidal activity in wheat and barley; assay type: in vivo; settings: Table 8, 21 d; for GR20 TRZSS: dose for 20 percent growth reduction; for pest or weed control at 35 g/ha / pest or weed control at 70 g/ha / pest or weed control at 140 g/ha: Triticum aestivum, post-emergence, 504 h, post-emergent, read-out: Visual Growth Reduction (%) 21 Days After Application TRZSS; for pest or weed control at 35 g/ha: 35 g ai/ha; for pest or weed control at 70 g/ha: 70 g ai/ha; for pest or weed control at 140 g/ha: 140 g ai/ha
Method: (§1) Post-emergent Test III. Seeds of the desired test plant species were planted in Sun Gro MetroMix® 306 planting mixture, which typically has a pH of 6.0 to 6.8 and an organic matter content of about 30 percent, in plastic pots with a surface area of 103.2 square centimeters (cm^2). When required to ensure good germination and healthy plants, a fungicide treatment and/or other chemical or physical treatment was applied. The plants were grown for 7-36 days (d) in a greenhouse with an approximate 14 hour (h) photoperiod which was maintained at about 18° C. during the day and 17° C. during the night. Nutrients and water were added on a regular basis and supplemental lighting was provided with overhead metal halide 1000-Watt lamps as necessary. The plants were employed for testing when they reached the second or third true leaf stage.
(§2) A weighed amount, determined by the highest rate to be tested, of each test compound was placed in a 25 mL glass vial and was dissolved in 4 mL of a 97:3 v/v mixture of acetone and DMSO to obtain concentrated stock solutions. […] The concentrated stock solutions obtained were diluted with 20 mL of an aqueous mixture containing acetone, water, isopropyl alcohol, DMSO, Agri-Dex crop oil concentrate, and X-77 surfactant in a 48:39:10:1.5:1.5:0.02 v/v ratio to obtain spray solutions containing the highest application rates. Additional application rates were obtained by serial dilution of 12 mL of the high rate solution into a solution containing 2 mL of 97:3 v/v mixture of acetone and DMSO and 10 mL of an aqueous mixture containing acetone, water, isopropyl alcohol, DMSO, Agri-Dex crop oil concentrate, and X-77 surfactant in a 48:39:10:1.5:1.5:0.02 v/v ratio to obtain ½×, ¼×, ⅛× and 1/16× rates of the high rate. Compound requirements are based upon a 12 mL application volume at a rate of 187 liters per hectare (L/ha). Formulated compounds were applied to the plant material with an overhead Mandel track sprayer equipped with 8002E nozzles calibrated to deliver 187 L/ha over an application area of 0.503 square meters at a spray height of 18 inches (43 cm) above the average plant canopy height. Control plants were sprayed in the same manner with the solvent blank.
(§3) The treated plants and control plants were placed in a greenhouse as described above and watered by subirrigation to prevent wash-off of the test compounds. After 21 d, the condition of the test plants as compared with that of the untreated plants was determined visually and scored on a scale of 0 to 100 percent where 0 corresponds to no injury and 100 corresponds to complete kill.
(§4) By applying the well-accepted probit analysis as described by J. Berkson in Journal of the American Statistical Society, 48, 565 (1953) and by D. Finney in “Probit Analysis” Cambridge University Press (1952), herbicidal injury of a specific compound at various rates can be used to calculate GR20, GR50, GR80 and GR90 values, which are defined as growth reduction factors that correspond to the effective dose of herbicide required to provide plant growth reduction (GR) of 20 percent, 50 percent, 80 percent and 90 percent, respectively. Probit analysis was applied to data collected from multiple dose rates of individual compounds utilizing the procedures explained in the following examples. The analysis of those dose rates is captured in the following tables.

[2] = test system: MATSS: scented mayweed (Matricaria chamomilla), pineappleweed (Matricaria matricarioides); experiment: as above; assay type: in vivo; settings: Table 8, 21 d; for pest or weed control at 35 g/ha / pest or weed control at 70 g/ha / pest or weed control at 140 g/ha: Matricaria chamomilla, post-emergence, 504 h, post-emergent, read-out: Visual Growth Reduction (%) 21 Days After Application MATSS; for pest or weed control at 35 g/ha: 35 g ai/ha; for pest or weed control at 70 g/ha: 70 g ai/ha; for GR50 MATSS: dose for 50 percent growth reduction; for GR50 MATSS / GR80 MATSS: probit analysis; for GR80 MATSS: dose for 80 percent growth reduction; for pest or weed control at 140 g/ha: 140 g ai/ha
Method: as §1, §2, §3, §4

[3] = test system: KCHSC: kochia (Kochia scoparia); experiment: as above; assay type: in vivo; settings: Table 8, 21 d; for pest or weed control at 35 g/ha / pest or weed control at 70 g/ha / pest or weed control at 140 g/ha: Bassia scoparia, post-emergence, 504 h, post-emergent, read-out: Visual Growth Reduction (%) 21 Days After Application KCHSC; for pest or weed control at 35 g/ha: 35 g ai/ha; for pest or weed control at 70 g/ha: 70 g ai/ha; for GR50 KCHSC: dose for 50 percent growth reduction; for GR50 KCHSC / GR80 KCHSC: probit analysis; for GR80 KCHSC: dose for 80 percent growth reduction; for pest or weed control at 140 g/ha: 140 g ai/ha
Method: as §1, §2, §3, §4

[4] = test system: HORSS: barley, including spring and winter (Hordeum vulgare); experiment: as above; assay type: in vivo; settings: Table 8, 21 d; for pest or weed control at 35 g/ha / pest or weed control at 70 g/ha / pest or weed control at 140 g/ha: Hordeum vulgare, post-emergence, 504 h, post-emergent, read-out: Visual Growth Reduction (%) 21 Days After Application HORSS; for pest or weed control at 35 g/ha: 35 g ai/ha; for pest or weed control at 70 g/ha: 70 g ai/ha; for GR20 HORSS: dose for 20 percent growth reduction; for pest or weed control at 140 g/ha: 140 g ai/ha
Method: as §1, §2, §3, §4

[5] = dose for 80 percent growth reduction, probit analysis

SMILES | melting point | GR20 TRZSS ([1]; probit analysis) | pest or weed control at 35 g/ha [1] | pest or weed control at 70 g/ha [1] | pest or weed control at 35 g/ha [2] | pest or weed control at 70 g/ha [2] | GR50 MATSS [2] | GR80 MATSS [2] | pest or weed control at 35 g/ha [3] | pest or weed control at 70 g/ha [3] | GR50 KCHSC [3] | GR80 KCHSC [3] | pest or weed control at 35 g/ha [4] | pest or weed control at 70 g/ha [4] | GR20 HORSS ([4]; probit analysis) | further results
COC(=O)c1nc(-c2cc(F)c(Br)cc2F)nc(N)c1OC [Compound 2] | 186 to 187 °C | – | – | – | – | – | – | – | – | – | – | – | – | – | – | –
COc1c(N)nc(-c2cc(F)c(Br)cc2F)nc1C(=O)O [Compound 11] | 132 to 133 °C | – | – | – | – | – | – | – | – | – | – | – | – | – | – | –
C=Cc1c(C(=O)OC)nc(-c2ccc(C(F)(F)F)c(F)c2)c(F)c1N [Compound 12] | 77 to 78 °C | – | – | – | – | – | – | – | – | – | – | – | – | – | – | –
COC(=O)c1nc(-c2ccc(OC(F)F)cc2)cc(N)c1Cl [Compound 23] | 166.4 to 169 °C | – | – | – | – | – | – | – | – | – | – | – | – | – | – | –
COC(=O)c1nc(-c2ccc(I)c(F)c2)nc(N)c1OC [Compound 27, Methyl 6-amino-2-(3-fluoro-4-iodophenyl)-5-methoxypyrimidine-4-carboxylate] | – | 11 g ai/ha | 60 to 74% | 75 to 84% | 30 to 44% | 30 to 44% | 109 g ai/ha | >140 g ai/ha | 75 to 84% | 75 to 84% | 18 g ai/ha | 61 g ai/ha | 30 to 44% | 45 to 59% | 11 g ai/ha | –
COc1c(N)nc(-c2ccc(I)c(F)c2)nc1C(=O)O [Compound 37, 6-Amino-2-(3-fluoro-4-iodophenyl)-5-methoxypyrimidine-4-carboxylic acid] | – | 3 g ai/ha | 75 to 84% | 85 to 94% | 60 to 74% | 60 to 74% | 21 g ai/ha | 77 g ai/ha | 45 to 59% | 60 to 74% | 34 g ai/ha | 119 g ai/ha | 60 to 74% | 75 to 84% | 5 g ai/ha | –
Nc1c(Cl)c(C(=O)O)nc(-c2ccc(Br)c(F)c2)c1Cl [Compound 43, 4-Amino-6-(4-bromo-3-fluorophenyl)-3,5-dichloropicolinic acid] | – | 1 g ai/ha | 85 to 94% | 95 to 100% | 85 to 94% | 95 to 100% | 3 g ai/ha | 7 g ai/ha | 60 to 74% | 85 to 94% | 11 g ai/ha | 41 g ai/ha | 95 to 100% | 95 to 100% | 1 g ai/ha | –
COC(=O)c1nc(-c2ccc(C#N)c(F)c2)c(F)c(N)c1Cl [Compound 135, methyl 4-amino-3-chloro-6-(4-cyano-3-fluorophenyl)-5-fluoropicolinate] | – | 16 g ai/ha | 30 to 44% | 30 to 44% | 30 to 44% | 30 to 44% | 125 g ai/ha | >140 g ai/ha | 75 to 84% | 75 to 84% | 3 g ai/ha | 130 g ai/ha | 0 to 29% | 30 to 44% | 37 g ai/ha | GR80 TRZSS [1, 5]: >140 g ai/ha; pest or weed control at 140 g/ha [1]: 45 to 59%; pest or weed control at 140 g/ha [2]: 45 to 59%; pest or weed control at 140 g/ha [3]: 75 to 84%; pest or weed control at 140 g/ha [4]: 60 to 74%; GR80 HORSS [4, 5]: >140 g ai/ha
Nc1c(Cl)c(C(=O)O)nc(-c2ccc(I)c(F)c2)c1Cl [Compound 145, 4-Amino-3,5-dichloro-6-(3-fluoro-4-iodophenyl)picolinic acid] | – | 1 g ai/ha | 85 to 94% | 85 to 94% | 95 to 100% | 95 to 100% | 3 g ai/ha | 10 g ai/ha | 60 to 74% | 60 to 74% | 37 g ai/ha | 112 g ai/ha | 85 to 94% | 95 to 100% | 1 g ai/ha | pest or weed control at 140 g/ha [1]: 85 to 94%; pest or weed control at 140 g/ha [2]: 95 to 100%; pest or weed control at 140 g/ha [3]: 75 to 84%; pest or weed control at 140 g/ha [4]: 95 to 100%
COC(=O)c1nc(-c2ccc(Br)c(F)c2)nc(N)c1OC [Compound 171, Methyl 6-amino-2-(4-bromo-3-fluorophenyl)-5-methoxypyrimidine-4-carboxylate] | – | 11 g ai/ha | 75 to 84% | 85 to 94% | 30 to 44% | 30 to 44% | >140 g ai/ha | >140 g ai/ha | 85 to 94% | 95 to 100% | – | 23 g ai/ha | 45 to 59% | 60 to 74% | 20 g ai/ha | –
